In article PMC7864049, “Co-crystal structures of HIV TAR RNA bound to lab-evolved proteins show key roles for arginine relevant to the design of cyclic peptide TAR inhibitors” (The Journal of Biological Chemistry, 2021):
“Also recorded” adds a separate entry of the source. Read-outs that look alike come from different tables or passages of the source.

Key:
[1] = system: Tat ARM binding to HIV-1 TAR RNA
[2] = system: Tat ARM binding to HIV-1 TAR RNA; remark: listed apart in the source
HIV-1 TAR RNA (27-mer) = format: binding
human 7SK RNA = conditions: cited from earlier work
Description: (§1) The precise role of arginine in Tat-mediated RNA recognition came into focus only recently based on the high-resolution NMR analysis of an HIV Tat-ARM in complex with human 7SK RNA and HIV TAR RNA ([19]). When bound to host 7SK, Tat adopts a bent conformation wherein a cluster of three arginines specifically recognizes the Hoogsteen edges of guanine nucleobases. Conversely, the Tat-ARM adopts a more linear conformation that uses two arginines to recognize the Hoogsteen edges of TAR nucleobases. Remarkably, these different modes of base recognition use distinctive arginines from the same Tat pe ...

HIV TAR RNA = conditions: cited from earlier work
Description: as §1

**Q.** Which “heats of binding of Tat ARM” value [1] does the source give for “Ac-GISYGRKKRRQRRRAHQ-NH2 [Tat ARM, reference compound]” here?
**A.** no significant heats of binding; also recorded: no appreciable heats of binding

**Q.** And the “Tat binding mode in presence of TB-LP-6.9” value [2]?
**A.** non- identical two- site binding

**Q.** What about the Kd (HIV-1 TAR RNA (27-mer)) of the same substance?
**A.** 166 ± 21 nM

**Q.** What about the “ΔG°” value (HIV-1 TAR RNA (27-mer)) of the same substance?
**A.** -9.2 ± 0.1 kcal/mol

**Q.** And the “ΔH°” value (HIV-1 TAR RNA (27-mer))?
**A.** −4.5 ± 0.6 kca/mol

**Q.** What about the “−TΔS°” value (HIV-1 TAR RNA (27-mer)) of the same substance?
**A.** -4.8 ± 0.7 kcal/mol

**Q.** And the Kd (HIV-1 TAR RNA (27-mer); 20 °C)?
**A.** 135 ± 31 nM

**Q.** What about the “affinity” value (human 7SK RNA) of the same substance?
**A.** nanomolar affinity

**Q.** What about the “affinity” value (HIV TAR RNA) of the same substance?
**A.** nanomolar affinity
